This is an account of results in patent US12637413B2, “Fatty acid amide hydrolase (FAAH) cleavable prodrugs of thyromimetics and combination with peripherally restricted FAAH inhibitors” (Autobahn Therapeutics, Inc., priority 2021, dated 2026).

The target in data set [1] is T1, FAAH (Mus musculus, UniProt O08914).
T1 construct: from tissue; host or cells: living mice; plasma, liver and brain sampled
T1 sequence (O08914 1-579): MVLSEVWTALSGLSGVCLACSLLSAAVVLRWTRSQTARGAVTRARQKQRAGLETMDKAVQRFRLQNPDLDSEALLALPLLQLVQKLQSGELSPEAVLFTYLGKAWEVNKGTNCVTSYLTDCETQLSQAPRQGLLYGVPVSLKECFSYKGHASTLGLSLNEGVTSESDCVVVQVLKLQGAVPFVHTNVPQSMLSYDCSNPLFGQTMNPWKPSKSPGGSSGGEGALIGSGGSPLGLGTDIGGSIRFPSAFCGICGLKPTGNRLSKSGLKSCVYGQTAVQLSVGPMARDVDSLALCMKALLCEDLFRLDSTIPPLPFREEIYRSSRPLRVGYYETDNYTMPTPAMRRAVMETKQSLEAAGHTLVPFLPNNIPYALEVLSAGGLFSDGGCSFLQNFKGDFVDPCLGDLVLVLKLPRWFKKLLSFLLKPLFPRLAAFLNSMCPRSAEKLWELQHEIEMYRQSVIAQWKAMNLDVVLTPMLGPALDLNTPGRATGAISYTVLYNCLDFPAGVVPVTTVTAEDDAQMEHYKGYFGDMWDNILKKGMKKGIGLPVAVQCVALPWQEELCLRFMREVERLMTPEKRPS
In words: tissue distribution after co-dosing prodrug ABX-002 with or without PFI or GFI. The format is in vivo, mice. The following applies: for Distribution: peripheral or global FAAH inhibitor. Here is the method: The ability of globally-penetrant and peripherally-restricted FAAH inhibitors (GFI & PFI, respectively) to alter distribution of ABX-002 and ABX-002A was assessed.
Table 5 depicts the inhibition of active metabolite (LL-650177 or PF-044578454) in AUC in the plasma, liver, and brain after prodrug (ABX-002) co-dosing. Tissue distribution studies in mice confirm global & peripheral inhibition of FAAH.

Data set [2] concerns the target T2, recombinant human FAAH (Homo sapiens, UniProt O00519).
T2 sequence (O00519 1-579): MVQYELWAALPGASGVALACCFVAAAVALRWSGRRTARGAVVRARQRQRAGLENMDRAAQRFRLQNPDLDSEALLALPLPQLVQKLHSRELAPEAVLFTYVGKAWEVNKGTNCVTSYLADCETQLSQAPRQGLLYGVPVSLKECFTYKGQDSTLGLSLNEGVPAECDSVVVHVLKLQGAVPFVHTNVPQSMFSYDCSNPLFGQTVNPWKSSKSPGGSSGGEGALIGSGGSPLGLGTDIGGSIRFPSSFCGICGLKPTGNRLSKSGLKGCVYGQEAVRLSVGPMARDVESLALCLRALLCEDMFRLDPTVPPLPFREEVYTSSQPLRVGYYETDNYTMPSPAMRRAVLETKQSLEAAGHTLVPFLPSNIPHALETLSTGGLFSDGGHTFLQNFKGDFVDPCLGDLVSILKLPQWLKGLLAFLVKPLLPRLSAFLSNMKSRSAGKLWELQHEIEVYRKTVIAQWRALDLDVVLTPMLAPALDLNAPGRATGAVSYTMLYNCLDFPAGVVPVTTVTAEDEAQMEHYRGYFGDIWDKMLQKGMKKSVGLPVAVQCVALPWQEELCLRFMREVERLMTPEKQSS
In words: FAAH inhibition, 30 min preincubation, AMC substrate. The data set is classed as biochemical. As to conditions: 30 min preincubation with recombinant human FAAH and AMC; read-out: Apparent IC50s.

As for `NC(=O)c1cccc(-c2cc(OC(=O)NC3CCCCC3)ccc2O)c1` [URB937], the Distribution result in data set [1] is “Peripheral”. In addition, the IC50 in data set [2] amounted to 69 nM.

Take `O=C(Nc1cccnn1)N1CCC(=Cc2cccc(Oc3ccc(C(F)(F)F)cn3)c2)CC1` [PF-04457845]: the “inhibition of active metabolite AUC, Brain” value in data set [1] (ABX-002A AUC after ABX-002 co-dosing, mice, brain) was found to be 83%. The “inhibition of active metabolite AUC, Liver” value in data set [1] (ABX-002A AUC after ABX-002 co-dosing, mice, liver) was found to be 94%. Also, in data set [1] (ABX-002A AUC after ABX-002 co-dosing, mice, plasma), the “inhibition of active metabolite AUC, Plasma” value worked out at 94%. Also, the Distribution result in data set [1] is “Global”. Moreover, the IC50 in data set [2] turned out to be 3 nM.
